Data from US20190000889A1, “METHODS FOR TREATING DIABETES” (CITY OF HOPE, priority 2015, published 2019).

Key:
Type in all cases: in vivo
[1] = system: Sox9+ pancreatic ductal cells; test: Lineage tracing of Sox9+ ductal cells in Sox9CreERT2 R26mT/mG mice, long-term low-dose GE (islets); conditions: Sox9CreERT2 R26mT/mG C57BL/6 mice, TM 20 mg in five doses over 2 weeks
Protocol: 8 weeks old female Sox9^CreERT2 R26^mT/mG mice were first injected with Tamoxifen™ to label the Sox9/EGFP^+ cells, then the mice were induced to develop diabetes and treated with PBS or GE and monitored as described in FIG. 2A. At the end of experiments, pancreases were stained for Insulin and EGFP, and merged staining was also shown.
(§1) 8-week-old female mice were I.V. injected with β cell toxin Alloxan (Sigma) at 70 mg/kg body weight. Tail vein blood glucose was measured daily or twice a week with Precision Xtra Glucose Meter (Abbott Diabetes Care Inc.) with a maximum reading of 500 mg/dL Tamoxifen (TM, Sigma) was prepared at 20 mg/mL in corn oil (Sigma). […]
Percentage of EGFP^+Sox9^+ cells was determined by the number of EGFP^+Sox9^+ cells divided by the total number of Sox9^+ cells. Cells were counted in ten random fields of view of a tissue section. To quantify the number of lineage-labeled Insulin^+ cells, all Insulin^+ cells and Ins/EGFP^+Ins^+ cells on a section were counted, and then the percentage of Ins/EGFP^+Ins^+ cells amongst total Insulin^+ cells was determined. To quantify the number of lineage-labeled Insulin^+ cells arising from Sox9^+ cells, all Insulin^+ cells and Sox9/EGFP^+Ins^+ cells on a section were counted, and then the percentage of Sox9/EGFP^+Ins^+ cells among total Insulin^+ cells was determined. […] Average count of each mouse was calculated. […]

[2] = system: pre-existing insulin-producing β cells; test: Lineage tracing of pre-existing β cells in Ins1CreERT R26mT/mG mice, long-term low-dose GE; conditions: non-diabetic Ins1CreERT R26mT/mG mice, TM 20 mg in five doses over 2 weeks
Protocol: 8 weeks old female Ins1^CreERTR26^mT/mG mice were first given I.P. injection of Tamoxifen™ every two days over a 2-week period to induce EGFP expression and label the pre-existing β cells. Thereafter, mice were induced to develop diabetes with Alloxan, and mice with medium or high hyperglycemia were treated with GE or PBS control. At the end of the experiments, the pancreases were harvested and stained for insulin and EGFP, and merged staining was also shown. Nuclei were labeled by DAPI. The percentage of EGFP^+Ins^+ cells amongst total Insulin^+ cells was calculated. Normal non-diabetic mice were used as a control for checking EGFP labeling efficiency.
as §1
Percentage of EGFP^+Sox9^+ cells was determined by the number of EGFP^+Sox9^+ cells divided by the total number of Sox9^+ cells. Cells were counted in ten random fields of view of a tissue section. […] To quantify Sox9/EGFP^+Ins^+ cells among ductal tubes, all Sox9/EGFP^+ ductal cells co-expressing insulin in ducts were counted on a section. […] Average count of each mouse was calculated. […]

C57BL/6 mice = test: Alloxan induction of diabetes, blood glucose levels by day 28; conditions: one i.v. dose Alloxan 70 mg/kg, day 28, n=222
Protocol: 8-week-old female mice were I.V. injected with β cell toxin Alloxan (Sigma) at 70 mg/kg body weight. Tail vein blood glucose was measured daily or twice a week with Precision Xtra Glucose Meter (Abbott Diabetes Care Inc.) with a maximum reading of 500 mg/dL Tamoxifen (TM, Sigma) was prepared at 20 mg/mL in corn oil (Sigma). For tracing studies in adult mice, a total of 20 mg of TM was given […] in five doses (each 4 mg) over a 2-week period. Mice rendered diabetic (>300 mg/dL) over a period of 28 days were used in subsequent experiments.
This example investigates whether Sox9^+ pancreatic ductal cells could give rise to insulin-producing β cells in adult diabetic mice after GE treatment, using non-autoimmune Sox9^CreERT2R26^mT/mG C57BL/6 mice. First, a β cell neogenesis mouse model in non-autoimmune diabetic C57BL/6 mice was established. 8 week-old adult female C57BL/6 mice were induced to develop diabetes by one intravenous injection of Alloxan (70 mg/kg body weight) as previously described (14, 27). Mice developed variable levels of hyperglycemia, including mild (<300 mg/dL), medium (300-450 mg/dL) and high hyperglycemia (>450 mg/dL). C57BL/6 mice (n=222) were induced to render diabetic by intravenously injecting one dose of Alloxan (70 mg/kg body weight) at day 0. Blood glucose (BG) concentrations in mice were measured twice a week for 4 weeks.

Question: Which results are given for CC/C(=C(\c1ccccc1)c1ccc(OCCN(C)C)cc1)c1ccccc1 [TM, Tamoxifen]?
Answer: Pancreatic Sox9-expression ductal epithelial cells labeled with EGFP [1]: over 90%; Pre-existing β cells in the islets labeled with EGFP [2]: more than 90%

Question: How did the “Mouse No. with high hyperglycemia (BG ≥ 450 mg/dL)” value (C57BL/6 mice) turn out when O=C1NC(=O)C(=O)C(=O)N1 [Alloxan] was run?
Answer: The value was 83.

Question: What about the “Mouse No. with medium hyperglycemia (300 ≤ BG < 450 mg/dL)” value (C57BL/6 mice) of the same compound?
Answer: Its value is 101.

Question: What about the “Mouse No. with mild hyperglycemia (BG < 300 mg/dL)” value (C57BL/6 mice) of the same compound?
Answer: Its value is 38.

Question: And the “Percentage of mice with high hyperglycemia (BG ≥ 450 mg/dL)” value (C57BL/6 mice)?
Answer: The value was 38%.

Question: What about the “Percentage of mice with medium hyperglycemia (300 ≤ BG < 450 mg/dL)” value (C57BL/6 mice) of the same compound?
Answer: The value was 45%.

Question: And the “Percentage of mice with mild hyperglycemia (BG < 300 mg/dL)” value (C57BL/6 mice)?
Answer: The value was 17%.
